Results taken from US20240384268A1, “Oligonucleotides” (Hudson Institute of Medical Research, priority 2021, published 2024).
“Also recorded” adds a separate entry of the source. In the oligonucleotide strings, read from the 5' end, every base follows the letter of its sugar. An asterisk marks phosphorothioate; unmarked linkages are phosphodiester. Other units and linkages are bracketed, terminal groups are in braces. A string of capitals states the bases alone. d = 2'-deoxy (DNA); m = 2'-O-methyl

Tests used:
cGAS [1] = biological target: cGAS (Mus musculus, UniProt Q8C6L5); test: IFN-driven gene expression in Trex1-mutant primary BMDMs, RT-qPCR; settings: 50 nM ASO transfected 20 h
cGAS (Mus musculus, UniProt Q8C6L5), sequence (Q8C6L5 whole entry): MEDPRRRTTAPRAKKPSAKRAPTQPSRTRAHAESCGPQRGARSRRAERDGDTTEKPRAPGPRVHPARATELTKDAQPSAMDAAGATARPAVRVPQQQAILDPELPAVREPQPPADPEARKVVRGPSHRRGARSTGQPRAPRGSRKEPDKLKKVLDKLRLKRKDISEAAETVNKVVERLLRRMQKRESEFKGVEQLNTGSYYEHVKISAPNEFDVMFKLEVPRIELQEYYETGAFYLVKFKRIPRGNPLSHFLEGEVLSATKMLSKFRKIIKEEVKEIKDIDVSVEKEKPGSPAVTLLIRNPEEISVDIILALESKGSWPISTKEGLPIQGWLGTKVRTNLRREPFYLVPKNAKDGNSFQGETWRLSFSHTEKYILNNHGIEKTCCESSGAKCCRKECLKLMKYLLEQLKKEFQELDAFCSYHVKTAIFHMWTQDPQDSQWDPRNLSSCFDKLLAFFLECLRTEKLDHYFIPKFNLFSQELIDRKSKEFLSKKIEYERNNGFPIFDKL

[2] = biological target: T1, Recombinant full-length human cGAS (Homo sapiens, UniProt Q8N884); test: cGAS in vitro assay and cGAMP ELISA; format: biochemical; settings: 2.3 μM ISD70, 40 min; for cGAMP production driven by ISD70 (in words): 0.5 μM oligonucleotide
T1 construct: Recombinant full-length human cGAS (Cayman, #22810); purchased Cayman #22810
T1 sequence (Q8N884 whole entry): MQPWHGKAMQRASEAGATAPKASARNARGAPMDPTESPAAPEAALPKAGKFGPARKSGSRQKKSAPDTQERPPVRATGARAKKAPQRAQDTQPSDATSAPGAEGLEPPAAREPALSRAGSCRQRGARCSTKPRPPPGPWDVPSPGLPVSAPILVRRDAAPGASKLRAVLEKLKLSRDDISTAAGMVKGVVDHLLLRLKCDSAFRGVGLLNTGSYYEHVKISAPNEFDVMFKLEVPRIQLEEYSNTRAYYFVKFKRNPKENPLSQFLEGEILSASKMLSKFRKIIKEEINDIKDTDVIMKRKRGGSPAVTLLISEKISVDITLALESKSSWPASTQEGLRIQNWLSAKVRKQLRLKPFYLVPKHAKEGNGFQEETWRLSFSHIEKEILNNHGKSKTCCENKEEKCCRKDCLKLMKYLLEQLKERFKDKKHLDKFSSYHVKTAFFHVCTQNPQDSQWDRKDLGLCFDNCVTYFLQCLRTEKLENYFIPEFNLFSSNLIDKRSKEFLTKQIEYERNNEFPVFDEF
Protocol: 0.8 μg of Recombinant full-length human cGAS (Cayman, #22810) was used per single reaction in a 200 μl volume with 80 mM Tris-HCl (pH 7.5), 200 mM NaCl, 20 μM ZnCl2, 20 mM MgCl2, 0.25 mM GTP (Thermofisher #R0441) and 0.25 mM ATP (Thermofisher #R0461), with 20 μg of ISD70 (freshly annealed at 1 μg/l in PBS), and 2 μl C2-Mut1/A151 diluted in TE buffer (to get 0.5, 2 or 10 μM ODN concentration in 200 l). After 40 min at 37° C., 2.5 mM EDTA was added to each tube to stop the enzymatic reaction and the samples were either snap frozen and stored at −80° C. or directly processed for cGAMP ELISA. cGAMP levels were measured with the DetectX Direct 2′,3′-Cyclic GAMP Enzyme Immunoassay Kit (Arbor Assays), according to the manufacturer's protocol. Briefly, 50 μL of in vitro reaction were added per well of the kit microplate with 50 μL Assay buffer, 25 μL conjugate, and 25 μL Antibody per well, prior to a minimum of 2 h incubation. The standards were prepared with serial-dilution in Assay buffer. Quantification of cGAMP levels was performed on a Fluostar OPTIMA (BMG LABTECH) plate-reader at 450 nm.

cGAS [3] = biological target: cGAS (Homo sapiens, UniProt Q8N884); test: ISD70-driven IP-10 production in MG-63 cells; format: cell-based; set-up: endogenous in cells; settings: C2-Mut1 500 nM 6 h, or ASO847 series ~30 min, ISD70 overnight
cGAS (Homo sapiens, UniProt Q8N884), sequence (Q8N884 whole entry): as above

STING = biological target: T2, STING (Homo sapiens, UniProt Q86WV6); test: STING agonist (GSK, DMXAA)-driven IP-10 in MG-63 cells and immortalised mouse BMDMs; format: cell-based; settings: C2-Mut1 500 nM 6 h (GSK 100 nM, DMXAA 50 μg/ml); MOE/LNA ASOs 1 mM as printed (GSK, MG-63)
T2 construct: host or cells: MG-63 (human osteosarcoma)
T2 sequence (Q86WV6 whole entry): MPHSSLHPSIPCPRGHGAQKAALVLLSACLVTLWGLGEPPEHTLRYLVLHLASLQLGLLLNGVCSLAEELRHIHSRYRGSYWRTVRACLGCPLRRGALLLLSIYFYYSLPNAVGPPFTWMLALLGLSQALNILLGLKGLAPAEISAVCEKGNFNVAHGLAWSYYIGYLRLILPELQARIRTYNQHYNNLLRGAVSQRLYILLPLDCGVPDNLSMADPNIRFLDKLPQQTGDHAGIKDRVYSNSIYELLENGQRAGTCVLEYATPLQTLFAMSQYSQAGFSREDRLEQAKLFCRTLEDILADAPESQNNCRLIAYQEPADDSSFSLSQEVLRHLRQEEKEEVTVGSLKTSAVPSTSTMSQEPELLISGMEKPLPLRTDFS

[4] = test system: primary fibroblast-like synoviocytes (FLS) and bone marrow-derived MSCs; test: Senescence β-galactosidase staining of primary FLS and MSCs; settings: naked ASO 1 to 5 μM for one to two weeks; listed as C2-Mutl
mouse Tlr9 = biological target: T3, mouse Tlr9 (Mus musculus, UniProt Q9EQU3); test: ODN 1826-driven TNF-α in immortalised mouse BMDMs; format: cell-based; settings: iBMDMs; 250-500 nM ASO; ODN 1826 500 nM overnight; listed as C2-Mutl
T3 construct: endogenous in cells; host or cells: immortalised wild-type mouse BMDMs
T3 sequence (Q9EQU3 26-1032): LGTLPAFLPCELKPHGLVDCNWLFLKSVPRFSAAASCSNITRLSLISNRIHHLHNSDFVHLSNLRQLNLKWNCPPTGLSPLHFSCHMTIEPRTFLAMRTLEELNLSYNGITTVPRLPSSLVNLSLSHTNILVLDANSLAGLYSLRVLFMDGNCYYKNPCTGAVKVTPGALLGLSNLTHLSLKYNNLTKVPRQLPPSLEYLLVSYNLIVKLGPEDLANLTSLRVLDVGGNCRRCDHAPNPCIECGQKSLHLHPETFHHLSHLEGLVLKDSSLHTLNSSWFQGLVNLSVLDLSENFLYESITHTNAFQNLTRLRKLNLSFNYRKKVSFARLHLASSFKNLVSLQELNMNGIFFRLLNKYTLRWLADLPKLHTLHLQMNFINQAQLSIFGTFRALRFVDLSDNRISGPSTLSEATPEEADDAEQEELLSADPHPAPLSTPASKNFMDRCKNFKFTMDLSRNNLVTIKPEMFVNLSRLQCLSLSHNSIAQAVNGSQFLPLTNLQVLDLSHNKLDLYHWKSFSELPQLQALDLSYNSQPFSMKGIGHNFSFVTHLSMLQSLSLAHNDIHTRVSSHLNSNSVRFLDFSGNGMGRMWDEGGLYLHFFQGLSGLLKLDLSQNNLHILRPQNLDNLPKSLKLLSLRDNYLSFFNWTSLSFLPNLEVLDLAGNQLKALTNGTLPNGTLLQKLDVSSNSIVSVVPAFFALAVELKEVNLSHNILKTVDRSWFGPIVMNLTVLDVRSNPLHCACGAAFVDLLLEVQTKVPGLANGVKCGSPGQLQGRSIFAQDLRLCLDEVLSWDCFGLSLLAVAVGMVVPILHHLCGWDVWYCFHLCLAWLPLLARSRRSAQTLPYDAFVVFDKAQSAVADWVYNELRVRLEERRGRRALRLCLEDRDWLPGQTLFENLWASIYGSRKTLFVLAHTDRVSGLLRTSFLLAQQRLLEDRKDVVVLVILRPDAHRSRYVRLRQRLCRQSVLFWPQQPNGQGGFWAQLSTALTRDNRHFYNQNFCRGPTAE

| Substance | basal expression of ISGs (Rsad2, Ifit1) in Trex1-mutant BMDMs (in words) (cGAS [1]) | cGAMP production driven by ISD70 (in words) [2] | inhibition of ISD sensing in MG-63, 2′OMe ASOs (in words) (cGAS [3]) | IP-10 production driven by STING synthetic agonists (in words) (STING) | senescence-associated β-galactosidase (SAB) positive cells (in words) [4] | inhibitory activity on cGAMP production relative to A151 ([2]; 2 μM oligonucleotide) | inhibition of mouse TLR9 sensing of CpG ODN (TNF-α; in words) (mouse Tlr9) |
| --- | --- | --- | --- | --- | --- | --- | --- |
| T*T*A* G*G*G* T*T*A* G*G*G* T*T*A* G*G*G* T*T*A* G*G*G [A151, reference compound] | failed to inhibit these ISGs | similarly reduced cGAMP production |  |  |  |  |  |
| mG*mC*mG*mG*mU*A*T*C*C*A*T*G*T*C*C*mC*mA*mG*mG*mC (mG*mC*mG*mG*mU*dA*dT*dC*dC*dA*dT*dG*dT*dC*dC*mC*mA*mG*mG*mC; antisense) [C2-Mut1] | significantly decreased the basal expression of two ISGs | similarly reduced cGAMP production | significantly impacting ISD sensing | did not significantly affect IP-10 production | senescence was strongly reduced; also recorded: more potent inhibitor of SAB than A151 | about 2 fold | significantly decreased sensing of the CpG ODN 1826; also recorded: very potent inhibitor of mouse TLR9 |
